Experimental data published in a melting point compilation (Tetko et al.; mined from patent text by program, amines drawn as free bases though some values may be those of a salt).

SMILES	melting point [°C]
CCC1=NN(CCO[Si](C)(C)C(C)(C)C)C(=O)C1Oc1cc(C#N)cc(C#N)c1 (stereo unspecified)	204
C=CCn1c(=O)c(C(=O)OCC)c(N2CCCC2)c2ccc(C)nc21	97 to 103
CCCC(CCC)C(=O)OC1N=C(c2ccccc2F)c2cc(Cl)ccc2NC1=O (stereo unspecified)	147 to 149
Cc1cc(C=O)c(Cl)nc1C	69 to 70
CCOC(=O)Nc1csc2cc(O)ccc12	159 to 160
CC(C)(C)OC(=O)NC(C)(CO)C(=O)OC(C)(C)C (stereo unspecified)	44 to 45
Nc1nc(Cl)nc2c1ncn2C1OC(CO)C(O)C1F (stereo unspecified)	225 to 226
COc1cc2c(cc1OC)C1=C(C#N)SCCC(=O)N1CC2	192 to 194
CCCCNC(=O)N(C)c1cccc(-c2ccc(C=C(OC)C(=O)OC)cc2)c1	89
COC1CSC2=C(SC1)C(OC(=O)N1CCN(C(=O)C(C)C)CC1)N(c1ccc3ccc(Cl)nc3n1)C2=O (stereo unspecified)	232
Nc1ccccc1OC1CCCCC1	55 to 56
CCCc1nc(C=NNC(=S)SC)c[nH]1	95 to 104
Cc1c(Cl)nc(NC=O)nc1Cl	123 to 124
CC(=O)OC1COC(N)C(OC(C)=O)C1OC(C)=O (stereo unspecified)	148 to 149
CC(C)NC(=O)NC(=O)c1ccnc([N+](=O)[O-])c1	132 to 133
COc1cccc(/C=C/C(=O)/C=C/C(=O)O)c1	158 to 160
OC1(C2CCNCC2)CC(c2ccc(F)cc2)c2ccc(F)cc21 (stereo unspecified)	198
Cc1cn(C2COC(CO)C(O)C2)c(=O)[nH]c1=O (stereo unspecified)	87 to 89
CC(C)(C)OC(=O)N[C@@H]1C[C@H](C(=O)O)Nc2cc(Cl)cc(Cl)c21 (relative stereo)	186 to 188
CC(=O)Oc1ccc(-c2cnc(C)[nH]c2=O)cc1OC(C)=O	178 to 179
CC(=O)N1CCNC1=Nc1ccc(Cl)cc1Cl	168 to 169
CCN(CC)C(=O)c1ccc(I)cc1	68 to 70
CC1(c2cc3ccccc3[nH]2)CCCCC1	50

SMILES	melting point [°C]
C=C(C)Cn1ncc(Cl)c(Cl)c1=O	52 to 54
COC(=O)N[C@@H](C(=O)O)c1ccccc1	122 to 125
C[C@H](NS(=O)(=O)c1ccc2c(Cl)cnc(Cl)c2c1)C(=O)OC(C)(C)C	115 to 119
CC1Oc2cc3nc(S)[nH]c3cc2O1	> 300
COc1ccc(C2=NNC(=O)C(C)C2)cc1 (stereo unspecified)	203 to 206
Cc1cn(C(C)(C)C(=O)N(C)C)nc1-c1cccs1	116 to 119
Cc1ccc(NCCNS(C)(=O)=O)cc1O	145
CCS(=O)(=O)C1=C(C(=O)c2ccc(S(C)(=O)=O)cc2Cl)C(=O)CCC1	157 to 161
O=C1Nc2cccc(Cl)c2C12COc1cc3c(cc12)CCO3 (stereo unspecified)	> 200
Cc1c(Cl)nc(=O)n(C)c1N	254 to 256
CN1C(=O)CSC1c1cccnc1 (stereo unspecified)	96.5 to 97.5
CCOC(=O)C(NC(=O)NC)C(=O)OCC	139
Cc1ccc([N+](=O)[O-])cc1C(=O)N(C)C	98 to 99
Clc1ncnc2cc3c(cc12)OCCO3	169 to 174
CCC1CC2C3CCC4=CC(=O)CCC4C3CCC2(C)C1O (stereo unspecified)	150 to 152
S=C1CN=C(c2ccccc2Cl)c2ccccc2N1	228 to 229
CCOC(CNC(=C[N+](=O)[O-])SC)OCC	73 to 73.5
CCCCCNC(=NC#N)Nc1cccnc1	130 to 132
COc1ccc(OC)c(C(=O)C#CC(=O)O)c1	91 to 93
O=C1CN2CCOC2(c2ccccc2F)c2cc(Cl)ccc2N1CCO (stereo unspecified)	141 to 146
COC(=O)C(=CN1c2ccc(F)c(F)c2OCC1C)C(=O)OC (stereo unspecified)	146 to 147
Oc1ccccc1[C@@H]1C[C@H]2C=C(c3c[nH]c(-c4ccc(F)cc4)c3-c3ccncc3)CCN2C1	195 to 196

Other lines, results leading:

melting point [°C]	SMILES
173 to 175	CSCc1cnc2c(NC(=O)c3c(Cl)cccc3Cl)cccc2c1Cl
129 to 132	COc1ccc(-c2cc(=Nc3ccc(OCC(O)CNC(C)C)cc3)n(C)c(=O)n2C)cc1OC (stereo unspecified)
124	Nc1cccc(S(=O)(=O)NCc2ccccn2)c1
94 to 95	O=S(=O)(Cc1ccc(Cl)cc1)Cc1ccc(Cl)cc1
85 to 87	C=CCOCC(O)CN1CCN(c2nc(-c3ccccc3)nc3ccccc23)CC1 (stereo unspecified)
162	COC(=O)C1Cc2c(OC)cccc2N1S(=O)(=O)c1ccc(-c2ccc(F)cc2F)cc1 (stereo unspecified)
53 to 56	Oc1c(CC2CCCCC2)ccc2ccccc12
234 to 235	O=C1NCCc2c(-c3ccc(F)c(Cl)c3)[nH]c3cccc1c23
> 300	O=[N+]([O-])c1cc2nc(O)c(O)nc2c2nccnc12
159 to 160	COc1ccc(-c2coc3ccc(-c4nnc(C)o4)cc23)cc1F
80	CC(=O)N(C1(c2ccc(OCc3ccc4ccccc4n3)cc2)CCCC1)S(=O)(=O)c1ccccc1C
175 to 180	CCC(C)C(S)C(=O)NC1(C(=O)NC(Cc2ccc(-c3ccco3)nc2)C(=O)O)CCCC1 (stereo unspecified)
209 to 210	CC1(C)Oc2ccc(C#N)cc2C(n2nc(-c3c(-c4ccccc4)nn4ccccc34)ccc2=O)C1O (stereo unspecified)
153 to 156	O=c1c2ccccc2oc2cc(OCCO)c(Cl)cc12
106 to 107	O=CN1CCN(C[C@H](O)COc2cccc3[nH]ccc23)CC1
88.5 to 90	N#Cc1ccccc1OCCCN1CCC(C(c2ccc(F)cc2)c2ccc(F)cc2)CC1
233 to 235	NC(=O)c1c(N)oc2c(-c3ccccc3)cccc2c1=O
73	FC(F)(F)c1ccc(-c2ccc(CCl)cn2)cc1
120	CC(=O)NCCCCOC1c2ccccc2C(=O)N1c1ccc2ccc(Cl)nc2n1 (stereo unspecified)
157 to 158	CC(C)c1c(CO)n(-c2ccc(F)cc2)c(=O)c2ccccc12
180 to 185	CN1C(=O)CC[C@]2(C)c3ccc(-c4cnc5ccccc5c4)cc3CC[C@@H]12

melting point [°C]	SMILES
214 to 215	O=C(NCC1(c2ccccc2)CCCCC1)Nc1cccc(Cl)c1Cl
146 to 149	O=C(Oc1ccccc1)c1ccc(-c2ccccc2)cc1
146 to 148	OCc1ncn(CCCc2ccc(OCc3coc(/C=C/c4ccccc4)n3)cc2)c1CO
128 to 130	CCOC(=O)c1c(C)nn(-c2ccccc2[N+](=O)[O-])c1C
235 to 236	COc1cc2c(=O)cc[nH]c2cc1OCc1ccccc1
168 to 169	COC(=O)C(Cc1ccccc1)NC(=S)Nc1nc2ccccc2s1 (racemic)
75 to 80	Cc1ncccc1OCCO
74 to 76	ON=Cc1ccc(Sc2ccccc2)cc1
> 250	O=C(C=CC(=O)Nc1ccccc1)NCc1cc(Br)cc2[nH]c(=O)c(=O)[nH]c12
229 to 233	CCN(CC)CCC/C=C/c1cc2ncc(C#N)c(Nc3ccc(Sc4nccn4C)c(Cl)c3)c2cc1OC
105 to 106	C#CC1(COCc2ccccc2)OC(n2ccc(=O)[nH]c2=O)C(OC(C)=O)C1OCc1ccccc1 (stereo unspecified)
144 to 146	CCn1cc(Cc2ccc(C(=O)OC)cc2OC)c2cc(NC(=O)CC3CCCC3)ccc21
293	Cc1ccc(N2C(=O)C(Cl)=C(C(=O)c3ccc(C(C)C)cc3)C2c2ccc(OC(F)(F)F)cc2)nn1 (stereo unspecified)
111 to 123	COc1cc2c(cc1Nc1ncc(Cl)c(Nc3ccccc3S(C)(=O)=O)n1)CCN(CC(N)=O)CC2
199 to 202	CNc1ccccc1C(=O)N1Cc2ccccc2C(=O)N1
115 to 117	O=[N+]([O-])c1cccnc1Oc1nn(Cc2ccccc2F)c2ncccc12
66 to 68	C#CC(C)OC(=O)c1cccc2ccccc12 (stereo unspecified)
179 to 180	CC(=O)OC1C(COC(=O)c2ccccc2)OC(n2ccc(=O)[nH]c2=O)C1F (stereo unspecified)
> 300	O=c1c(Cl)cn(-c2cc3[nH]c(=O)c(=O)[nH]c3cc2[N+](=O)[O-])cc1Cl
129 to 131	COc1cccc(-c2nn(-c3ccccc3)c(-c3cccc(OC)c3)c2CC(=O)O)c1
76 to 85	COc1cc(N2CCN(C[C@H](C)O)CC2)ccc1Nc1ncc2ccc(-c3ccccc3OC)n2n1

melting point [°C]	SMILES
176	CC(C)(C)NC(=O)c1ccc2[nH]ccc2c1
287	CC1SC(=O)NN=C1c1ccc2c(c1)C(=Cc1cccs1)C(=O)N2 (stereo unspecified)
224 to 225	O=C(NCc1ccccn1)c1cc(-n2cnn(Cc3ccc(F)cc3)c2=O)n[nH]1
127 to 132	CC(C)(C)c1ccc(C(=O)Nc2ccccc2C(=O)NCCc2ncc[nH]2)cc1
108 to 109	CCOC(=O)c1ccc(CN2C(=O)c3ccccc3C2=O)o1
126 to 127	CCc1c(-c2cc(C)c(OC)c(C)c2)[nH]c2ccccc12
153	O=C1NC(CCN2CCC(C(=O)c3ccc(F)cc3)CC2)Nc2ccccc21 (stereo unspecified)
67 to 68	CCOC(=O)c1ccc(Cc2ccc3c(c2)OCO3)o1
95	O=C(NCCO)C(Oc1ccc(F)c(C(F)(F)F)c1)c1ccc(Cl)cc1 (stereo unspecified)
45 to 46	CC(C)(C)NC(=O)c1ncccc1CCc1cccc(Cl)c1
127	CC#Cc1ccc(-c2ccc(-c3ccc(CCCCC)c(F)c3F)cc2)cc1
150 to 152	COC(=O)c1ccc(Cn2c(C(F)(F)F)nc3cc(C)c(C)cc32)cc1
160 to 162	COc1ccc(S(=O)(=O)c2ccc(OC)c3ccccc23)cc1
174 to 176	NC(=O)CN1CC(OCc2ccccc2)=CC1=O
147 to 150	CN1CC(C(=O)N(Cc2ccc(F)cc2)OCC(=O)O)=C(O)C1=O
160 to 161	CN(c1cc(OCC(N)=O)cc2cc(C3=NCC(CN4CCS(=O)CC4)S3)[nH]c12)S(=O)(=O)c1ccccn1 (stereo unspecified)
226	c1cn(Cc2ccc3[nH]c(-n4ccnc4)nc3c2)cn1
162 to 163	CCCN1CC(c2cccc(Br)c2)=C(c2ccc(S(N)(=O)=O)cc2)C1=O
175 to 176	CCc1cc(C=Cc2ccccc2O)on1
